Reference: patent US8877751B2, “Benzothiazolone derivatives” (Merck Patent GmbH, priority 2009, dated 2014)

Biological target: T1, Met kinase (Homo sapiens, UniProt P08581)
T1 construct: 6His (N); purchased Upstate 14-526; host or cells: Sf21 insect cells (S. frugiperda), baculovirus
Assay: Met kinase inhibition (enzyme assay), flashplate method
Format: biochemical
Text: According to the manufacturer's data (Met, active, Upstate, catalogue No. 14-526), Met kinase is expressed for the purposes of protein production in insect cells (Sf21; S. frugiperda) and subsequent affinity-chromatographic purification as “N-terminal 6His-tagged” recombinant human protein in a baculovirus expression vector.
Flashplate Method (Met Kinase)
The test plates used are 96-well Flashplate^R microtitre plates from Perkin Elmer (Cat. No. SMP200). The components of the kinase reaction described below are pipetted into the assay plate. The Met kinase and the substrate poly Ala-Glu-Lys-Tyr, (pAGLT, 6:2:5:1), are incubated for 3 hrs at room temperature with radioactively labelled ^33P-ATP in the presence and absence of test substances in a total volume of 100 μl. The reaction is terminated using 150 μl of a 60 mM EDTA solution. After incubation for a further 30 min at room temperature, the supernatants are filtered off with suction, and the wells are washed three times with 200 μl of 0.9% NaCl solution each time. The measurement of the bound radioactivity is carried out by means of a scintillation measuring instrument (Topcount NXT, Perkin-Elmer).
The full value used is the inhibitor-free kinase reaction. This should be approximately in the range 6000-9000 cpm. The pharmacological zero value used is staurosporin in a final concentration of 0.1 mM. The inhibitory values (IC50) are determined using the RS1_MTS program.
Kinase reaction conditions per well: • 30 μl of assay buffer • 10 μl of substance to be tested in assay buffer with 10% of DMSO • 10 μl of ATP (final concentration 1 μM cold, 0.35 μCi of ^33P-ATP) • 50 μl of Met kinase/substrate mixture in assay buffer; • (10 ng of enzyme/well, 50 ng of pAGLT/well)
Solutions Used: • Assay buffer: • 50 mM HEPES • 3 mM magnesium chloride • 3 μM sodium orthovanadate • 3 mM manganese(II) chloride • 1 mM dithiothreitol (DTT) • pH=7.5 (to be set using sodium hydroxide) • Stop solution: • 60 mM Titriplex III (EDTA) • ^33P-ATP: Perkin-Elmer; • Met kinase: Upstate, Cat. No. 14-526, Stock 1 μg/10 μl; spec. activity 954 U/mg; • Poly-Ala-Glu-Lys-Tyr, 6:2:5:1: Sigma Cat. No. P1152

T1 sequence (P08581 25-1390): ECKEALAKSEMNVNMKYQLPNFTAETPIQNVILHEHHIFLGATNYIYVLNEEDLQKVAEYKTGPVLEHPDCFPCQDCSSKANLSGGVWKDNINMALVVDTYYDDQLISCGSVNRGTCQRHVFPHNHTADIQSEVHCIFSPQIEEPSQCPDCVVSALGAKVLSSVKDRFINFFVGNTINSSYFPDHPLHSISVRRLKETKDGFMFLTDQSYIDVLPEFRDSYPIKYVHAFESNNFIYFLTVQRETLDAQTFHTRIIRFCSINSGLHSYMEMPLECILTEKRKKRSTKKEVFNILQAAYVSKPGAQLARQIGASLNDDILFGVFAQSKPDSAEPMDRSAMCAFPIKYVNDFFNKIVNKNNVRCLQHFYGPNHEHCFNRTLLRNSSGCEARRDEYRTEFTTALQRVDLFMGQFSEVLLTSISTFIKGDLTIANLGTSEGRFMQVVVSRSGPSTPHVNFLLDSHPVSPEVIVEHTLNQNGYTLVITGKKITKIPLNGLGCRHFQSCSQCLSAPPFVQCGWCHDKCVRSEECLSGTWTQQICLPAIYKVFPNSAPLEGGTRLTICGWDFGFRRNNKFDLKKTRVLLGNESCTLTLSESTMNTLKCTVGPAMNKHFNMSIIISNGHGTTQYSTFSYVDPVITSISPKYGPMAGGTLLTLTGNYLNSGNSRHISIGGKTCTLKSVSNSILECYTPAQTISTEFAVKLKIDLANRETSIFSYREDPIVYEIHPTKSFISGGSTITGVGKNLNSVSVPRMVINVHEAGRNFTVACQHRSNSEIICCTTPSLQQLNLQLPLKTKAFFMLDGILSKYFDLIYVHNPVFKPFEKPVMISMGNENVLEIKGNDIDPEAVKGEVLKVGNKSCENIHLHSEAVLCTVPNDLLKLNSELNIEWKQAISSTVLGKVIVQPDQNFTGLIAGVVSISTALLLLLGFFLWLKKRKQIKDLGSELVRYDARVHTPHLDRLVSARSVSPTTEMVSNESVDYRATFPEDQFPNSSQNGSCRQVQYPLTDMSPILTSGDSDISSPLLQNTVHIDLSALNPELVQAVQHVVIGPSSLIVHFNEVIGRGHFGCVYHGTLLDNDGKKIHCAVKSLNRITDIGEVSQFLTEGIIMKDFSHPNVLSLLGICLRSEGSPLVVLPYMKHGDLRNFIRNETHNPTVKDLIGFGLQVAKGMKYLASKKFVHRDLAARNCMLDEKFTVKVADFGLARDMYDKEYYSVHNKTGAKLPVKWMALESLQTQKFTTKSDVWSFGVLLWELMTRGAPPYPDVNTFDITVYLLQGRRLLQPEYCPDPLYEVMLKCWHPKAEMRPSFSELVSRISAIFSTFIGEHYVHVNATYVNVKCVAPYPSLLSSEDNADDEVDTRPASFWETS

Row | IC50 [nM] | Structure (SMILES)
1 | 10 to 1000 | CC(=O)c1ccc2c(c1)sc(=O)n2Cc1cccc(-c2ncc(OCCN3CCOCC3)cn2)c1 [Compound A3, 6-Acetyl-3-{3-[5-(2-morpholin-4-ylethoxy)pyrimidin-2-yl]benzyl}-3H-benzothiazol-2-one]
2 | 10 to 1000 | CCC(=O)c1ccc2c(c1)sc(=O)n2Cc1cccc(-c2ncc(OCCN3CCOCC3)cn2)c1 [Compound A3a, 3-{3-[5-(2-Morpholin-4-ylethoxy)pyrimidin-2-yl]benzyl}-6-propionyl-3H-benzothiazol-2-one]
3 | 10 to 1000 | O=c1sc2ccc(Br)cc2n1Cc1cccc(-c2ncc(OCCN3CCOCC3)cn2)c1 [Compound A4, 5-Bromo-3-{3-[5-(2-morpholin-4-ylethoxy)pyrimidin-2-yl]benzyl}-3H-benzothiazol-2-one]
4 | 10 to 1000 | O=c1sc2ccc(C(F)(F)F)cc2n1Cc1cccc(-c2ncc(-c3cnn(CCN4CCCC4)c3)cn2)c1 [Compound A9, 3-(3-{5-[1-(2-pyrrolidin-1-ylethyl)-1H-pyrazol-4-yl]pyrimidin-2-yl}benzyl)-5-trifluoromethyl-3H-benzothiazol-2-one]
5 | 10 to 1000 | O=c1sc2ccc(C(F)(F)F)cc2n1Cc1cccc(-c2ncc(OCCN3CCOCC3)cn2)c1 [Compound A1, 3-{3-[5-(2-morpholin-4-ylethoxy)pyrimidin-2-yl]benzyl}-5-trifluoromethyl-3H-benzothiazol-2-one]
6 | 10 to 1000 | CCOC(=O)Nc1cccc(Cn2c(=O)sc3ccc(Cl)cc32)c1 [Compound A14, ethyl [3-(5-chloro-2-oxobenzothiazol-3-ylmethyl)phenyl]carbamate]
7 | 10 to 1000 | Cn1cc(-c2ccc3sc(=O)n(Cc4cccc(-c5ncc(OCCN6CCOCC6)cn5)c4)c3c2)cn1 [Compound A10, 5-(1-methyl-1H-pyrazol-4-yl)-3-{3-[5-(2-morpholin-4-ylethoxy)pyrimidin-2-yl]benzyl}-3H-benzothiazol-2-one]
8 | 10 to 1000 | O=c1sc2ccc(Cl)cc2n1Cc1cccc(-c2ncc(OCCN3CCOCC3)cn2)c1 [Compound A2, 5-Chloro-3-{3-[5-(2-morpholin-4-ylethoxy)pyrimidin-2-yl]benzyl}-3H-benzothiazol-2-one]
9 | 10 to 1000 | CN(C)CCCOc1cnc(-c2cccc(Cn3c(=O)sc4ccc(C(F)(F)F)cc43)c2)nc1 [Compound A5, 3-{3-[5-(3-dimethylaminopropoxy)pyrimidin-2-yl]benzyl}-5-trifluoromethyl-3H-benzothiazol-2-one]
10 | 10 to 1000 | CN1CCN(CCCOC(=O)Nc2cccc(Cn3c(=O)sc4ccc(Cl)cc43)c2)CC1 [Compound A13, 3-(4-methylpiperazin-1-yl)propyl [3-(5-chloro-2-oxobenzothiazol-3-ylmethyl)phenyl]carbamate]
11 | 10 to 1000 | Cc1nc(-c2cccc(Cn3c(=O)sc4ccc(Cl)cc43)c2)no1 [Compound A12, 5-chloro-3-[3-(5-methyl-1,2,4-oxadiazol-3-yl)benzyl]-3H-benzothiazol-2-one]
12 | 10 to 1000 | O=c1sc2ccc(C(F)(F)F)cc2n1Cc1cccc(-c2ncc(OCC3CCNCC3)cn2)c1 [Compound A8, 3-{3-[5-(piperidin-4-ylmethoxy)pyrimidin-2-yl]benzyl}-5-trifluoromethyl-3H-benzothiazol-2-one]
13 | 10 to 1000 | CN1CCC(COc2cnc(-c3cccc(Cn4c(=O)sc5ccc(C(F)(F)F)cc54)c3)nc2)CC1 [Compound A6, 3-{3-[5-(1-Methylpiperidin-4-ylmethoxy)pyrimidin-2-yl]benzyl}-5-trifluoromethyl-3H-benzothiazol-2-one]
14 | 10 to 1000 | CN1CCN(c2cnc(-c3cccc(Cn4c(=O)sc5ccc(C(F)(F)F)cc54)c3)nc2)CC1 [Compound A11, 3-{3-[5-(4-methylpiperazin-1-yl)pyrimidin-2-yl]benzyl}-5-trifluoromethyl-3H-benzothiazol-2-one]

Row | Structure (SMILES) | IC50 [nM]
15 | CC(C)(C)OC(=O)N1CCC(COc2cnc(-c3cccc(Cn4c(=O)sc5ccc(C(F)(F)F)cc54)c3)nc2)CC1 [Compound A7, 3-{3-[5-(1-tert-Butoxycarbonylpiperidin-4-ylmethoxy)pyrimidin-2-yl]-benzyl}-5-trifluoromethyl-3H-benzothiazol-2-one] | 10 to 1000
